What was measured:
isolated soleus muscle = test: Basal and insulin-stimulated 2-deoxyglucose uptake in isolated soleus muscle; set-up: species or system mice; conditions: 0.1 m-unit of insulin/ml, 2 h preincubation, 2-deoxyglucose uptake 15 min
Method: (A) Representative immunoblot of GLUT4 protein expression along with combined densitometric analysis. Muscle from 3 SCD1+/+ and 3 SCD1−/− mice were pooled. Plasma membranes were prepared as described in Example 1. Equal amount of protein was separated by SDS-PAGE and immunoblotted with GLUT4 antibody. Experiment was repeated three times. Data are shown as means±SD. *P<0.05 vs controls. Nitrocellulose membrane was stripped and reprobed with GAPDH antibody to ensure equal loading of the protein. (B) Glucose uptake measured in vivo in soleus and gastrocnemius muscles. […] The 2-deoxyglucose uptake was calculated as the difference between the total muscle radioactivity and the radioactivity of the muscle extracellular space measured using [1-^3H] mannitol. […]
Determination of plasma membrane GLUT4 levels, glucose uptake and glucose oxidation. Muscle plasma membranes were prepared from muscle of SCD1−/− and SCD1+/+ mice and GLUT4 levels were determined as described in Agote, M. et al. (2001) Am. […] The scintillation cocktail was added and radioactivity was counted in a liquid scintillation counter. The 2-deoxyglucose (2-DG) uptake was calculated as the difference between the total muscle radioactivity and the radioactivity of the muscle extracellular space. […] Glucose oxidation was determined in thin slices (20-30 mg) of gastrocnemius muscle as described in Baque, S. et al. (2001) Am. […]

Insulin tolerance test = assay type: in vivo; conditions: SCD1-/- mice compared with wild-type mice
Description: Animals and Diets. SCD1−/− mice in SV129 background were generated and genotyped as described in Miyazaki, M. et al. (2001) J. Nutr. 131, 2260-2268. The wild-type (SCD1+/+), heterozygous (SCD1+/−) and homozygous (SCD1−/−) mice are housed and bred in a pathogen-free barrier facility of the Department of Biochemistry (University of Wisconsin, Madison) operating at room temperature in a 12-h light/12-h dark cycle. The breeding of these animals was in accordance with the protocols approved by the animal care research committee of the University of Wisconsin. At 3 weeks of age, the mice were fed ad libitum a standard laboratory chow diet or a high-fat diet for 23 weeks. The high-fat diet contains 195 g/kg casein, 3 g/kg DL-methionine, 377 g/kg sucrose, 150 g/kg corn starch, 153 g/kg anhydrous milkfat, 10 g/kg corn oil, 1.5 g/kg cholesterol, 60.067 g/kg cellulose, 35 g/kg mineral mix AIN-76 (170915), 4 g/kg calcium carbonate, 10 g/kg vitamin mix Teklad (40060), 1.2 g/kg choline bitartrate, and 0.033 g/kg ethoxyquin (antioxidant). The weight of each mouse within each group was measured weekly; the data are presented as means±SD (n=8, P<0.001). The glucose tolerance and insulin tolerance were determined as described in Stoehr, J. P. et al. (2000) Diabetes 49, 1946-1954.

Substance: insulin
- insulin-mediated glucose uptake (fold) (isolated soleus muscle; isolated soleus muscle from SCD1+/+ mice): 1.6 fold
- insulin-mediated glucose uptake (fold) (isolated soleus muscle; isolated soleus muscle from SCD1-/- mice): 2.1 fold
- glucose lowering effect of insulin (Insulin tolerance test): greater in the SCD1−/− mice than wild-type mice
